According to patent publication US11628172B2, “Methods of treating chronic lymphocytic leukemia using 2-(2,6-dioxopiperidin-3-yl)-4-((2-fluoro-4-((3-morpholinoazetidin-1-yl)methyl)benzyl)amino)isoindoline-1,3-dione” (Celgene Corporation, priority 2019, dated 2023):
Where two headings read alike, the source gives them in different places.

Tests used:
Mec2 CLL cell line = test: Cell proliferation and viability assay (384-well flow cytometry, Annexin V/DRAQ7), Mec2; format: cell-based; settings: 120 hours
Procedure: (§1) The following are examples of cell-based assays that can be used to determine the anti-proliferative activity and apoptotic effect of compounds described herein using exemplary CLL cell lines (Table 3). The in vitro growth inhibitory activity of Compound 1 described herein was evaluated using a 384-well flow cytometry assay.
(§2) The cell lines were plated under the conditions shown in Table 3 in 384-well flat bottom plates and incubated with increasing concentrations of compound ranging from 0.00015 to 10 μM or dimethyl sulfoxide (DMSO) control. The final concentration of DMSO was 0.1% (v/v). Following the addition of Compound 1 or DMSO and incubation for 120 hours, cell number and cell death were analyzed by flow cytometry (Attune®, Thermo Fisher) using Annexin V and the live-cell impermeant DNA dye, DRAQ7. […]
(§3) Flow cytometry data analysis was then performed using the Flow Jo_v10 software to determine the number of viable cells (Annexin V and DRAQ7 double negative staining cells) and percentage of apoptotic cells (Annexin V positive cells) for each condition. […] The IC50 (50% inhibitory concentration) and Emax (maximum efficacy achieved) values were then calculated by performing nonlinear regression curve fitting using log (inhibitor) vs. normalized response—variable slope analysis on GraphPad Prism 7.03. […]

WA-OSEL CLL cell line = test: Cell proliferation and viability assay (384-well flow cytometry, Annexin V/DRAQ7), WA-OSEL; format: cell-based; settings: 120 hours
Procedure: as §1, §2, §3

CII CLL cell line = test: Cell proliferation and viability assay (384-well flow cytometry, Annexin V/DRAQ7), CII; format: cell-based; settings: 120 hours
Procedure: as §1, §2, §3

I83-E95 CLL cell line = test: Cell proliferation and viability assay (384-well flow cytometry, Annexin V/DRAQ7), I83-E95; format: cell-based; settings: 120 hours
Procedure: as §1, §2, §3

WA-C3-CD5+ CLL cell line = test: Cell proliferation and viability assay (384-well flow cytometry, Annexin V/DRAQ7), WA-C3-CD5+; format: cell-based; settings: 120 hours
Procedure: as §1, §2, §3

[1] = test system: primary CLL cells from patient-derived blood; test: Cell proliferation and viability assay for B-cell CLL patient cells (ex vivo co-culture with CD154-expressing fibroblasts); format: cell-based, human; design: AUC: unit not given here; settings: for Emax / IC50: Homo sapiens, CLL cell; for Emax: read-out: Emax (percentage of tumor cells remaining); for AUC: viable cell counts
Procedure: The following are examples of cell-based assays that can be used to determine the anti-proliferative activity and apoptosis effect of compounds described herein using exemplary CLL patient cells. The effect of Compound 1 on the viability and apoptosis of CLL B cells was assessed utilizing an ex vivo model.
CLL is characterized by accumulation of clonal CD5^+CD19^+ lymphocytes resistant to apoptosis. The effect of Compound 1 on the viability and apoptosis of CLL B cells was assessed utilizing an ex vivo model where primary CLL cells from patient-derived blood were stimulated with 10% fetal bovine serum (FBS), 5 ng/mL recombinant human interleukin-4 (rh IL-4), 10 ng/mL recombinant human interleukin-10 (rh IL-10) and co-cultured with fibroblast expressing surface CD154 (CD40L). The percentage of cells staining with Annexin V and/or DRAQ-7 was measured by flow cytometry assay after 3, 6 or 10 days of incubation with vehicle control or with increasing concentrations of Compound 1 ranging from 0.001 to 1 μM. Peripheral blood mononuclear cells (PBMCs) from CLL patients (Table 5) containing 70%-95% of CD5^+CD19^+ tumor cells were cultured on a monolayer of CD154-expressing fibroblasts in 24-well plates at a density of patient cells of 0.8×10^6 cells/well in RPMI 1640 medium supplemented with 10% FBS, 5 ng/mL rh IL-4 and 10 ng/mL rh IL-10 and were treated with vehicle control (0.1% DMSO) or increasing concentrations of Compound 1 ranging from 0.001 to 1 μM. After treatment, flow cytometric analysis was used to determine the number of cells that were viable or apoptotic.
After 3, 6 or 10 days of compound treatment, cells were incubated with Annexin V to capture the externalization of phosphatidylserine as a result of disturbed lipid asymmetry in the plasma membrane of cells, a well-characterized event in apoptosis, and the vital far-red fluorescent DNA dye DRAQ-7, that only stains the nuclei of dead and permeabilized cells, and analyzed by flow cytometry (Attune®, Thermo Fisher). Analysis was then performed to determine the percentage of viable live cells (Annexin V and DRAQ-7 double negative staining cells) using FlowJo_V10 and graphed with GraphPad Prism 7.03 software. The live cell count for every condition was normalized to the DMSO control (considered as 100% viable cells) to calculate the percentage of viable cells remaining after treatment. The IC50 (50% inhibitory concentration) and Emax (maximum efficacy eliminating tumor cells achieved) values were then calculated by performing nonlinear regression curve fitting using log(inhibitor) vs. normalized response—variable slope analysis on GraphPad Prism 7.03. Area under the curve (AUC) value of the viable cell counts over time was calculated by performing area under curve analysis on GraphPad Prism 7.03 (Table 6).

[2] = Pt10, ex vivo CLL patient cells

O=C1CC[C@H](N2C(=O)c3cccc(NCc4ccc(CN5CC(N6CCOCC6)C5)cc4F)c3C2=O)C(=O)N1 [Compound 1, (S)-2-(2,6-dioxopiperidin-3-yl)-4-((2-fluoro-4-((3-morpholinoazetidin-1-yl)methyl)benzyl)amino)isoindoline-1,3-dione]
% Viable Cells Emax (percentage of tumor cells remaining) (Mec2 CLL cell line): 25.55%
% Viable Cells Emax (percentage of tumor cells remaining) (WA-OSEL CLL cell line): 54.42%
% Viable Cells Emax (percentage of tumor cells remaining) (CII CLL cell line): 78.23%
% Viable Cells Emax (percentage of tumor cells remaining) (I83-E95 CLL cell line): 21.6%
% Viable Cells Emax (percentage of tumor cells remaining) (WA-C3-CD5+ CLL cell line): 44.2%
Emax ([1]; Pt1, ex vivo CLL patient cells): 4.62%
IC50 ([1]; Pt2, ex vivo CLL patient cells, 0.001 to 1 μM, viable cells normalized to DMSO, read-out: IC50): 1.05 nM
Emax ([1]; Pt2, ex vivo CLL patient cells): 30.6%
IC50 ([1]; Pt3, ex vivo CLL patient cells, 0.001 to 1 μM, viable cells normalized to DMSO, read-out: IC50): 0.723 nM
Emax ([1]; Pt3, ex vivo CLL patient cells): 13%
Emax ([1]; Pt4, ex vivo CLL patient cells): 6.5%
IC50 ([1]; Pt5, ex vivo CLL patient cells, 0.001 to 1 μM, viable cells normalized to DMSO, read-out: IC50): 0.305 nM
Emax ([1]; Pt5, ex vivo CLL patient cells): 22.8%
IC50 ([1]; Pt6, ex vivo CLL patient cells, 0.001 to 1 μM, viable cells normalized to DMSO, read-out: IC50): 2.75 nM
Emax ([1]; Pt6, ex vivo CLL patient cells): 27.4%
IC50 ([1]; Pt7, ex vivo CLL patient cells, 0.001 to 1 μM, viable cells normalized to DMSO, read-out: IC50): 0.036 nM
Emax ([1]; Pt7, ex vivo CLL patient cells): 5.87%
IC50 ([1]; Pt8, ex vivo CLL patient cells, 0.001 to 1 μM, viable cells normalized to DMSO, read-out: IC50): 0.209 nM
Emax ([1]; Pt8, ex vivo CLL patient cells): 4.82%
IC50 ([1]; Pt9, ex vivo CLL patient cells, 0.001 to 1 μM, viable cells normalized to DMSO, read-out: IC50): 0.0652 nM
Emax ([1]; Pt9, ex vivo CLL patient cells): 4.14%
IC50 ([1]; Pt10, ex vivo CLL patient cells, 0.001 to 1 μM, viable cells normalized to DMSO, read-out: IC50): 0.129 nM
Emax [1, 2]: 10.2%
IC50 ([1]; all CLL patient samples evaluated, read-out: concentrations that led to 50% inhibition of growth (IC50)): 0.1 to 3 nM
AUC ([1]; Pt1, ex vivo CLL patient cells): 32.79
AUC ([1]; Pt2, ex vivo CLL patient cells): 181.6
AUC ([1]; Pt3, ex vivo CLL patient cells): 106.1
AUC ([1]; Pt4, ex vivo CLL patient cells): 44.01
AUC ([1]; Pt5, ex vivo CLL patient cells): 139.6
AUC ([1]; Pt6, ex vivo CLL patient cells): 154.9
AUC ([1]; Pt7, ex vivo CLL patient cells): 44.86
AUC ([1]; Pt8, ex vivo CLL patient cells): 75.03
AUC ([1]; Pt9, ex vivo CLL patient cells): 48.14
AUC [1, 2]: 57.87
